Measurements: patent US11980594B2, “Composition and method for treating a drug-resistant cancer” (NOVELWISE PHARMACEUTICAL CORPORATION, priority 2021, dated 2024)

Tests used:
[1] = system: HT29 cells; test: Annexin V/PI flow cytometric analysis of apoptosis, HT29; assay type: cell-based, human; settings: BMX, 48 hrs
Experimental: (§1) Apoptosis induction in different doses of BMX (0-10 μM) in the presence or absence of TMZ (50 μM) was assayed by the detection of membrane externalization of phosphatidylserine with the with the CF®488A Annexin V and PI Apoptosis Kit (Fremont, Calif., USA) following the manufacturer's instructions. All samples were then immediately analyzed by flow cytometry.

[2] = system: HCT116 cells; test: Annexin V/PI flow cytometric analysis of apoptosis, HCT116; assay type: cell-based, human; settings: BMX, 48 hrs
Experimental: as §1

[3] = system: RKO cells; test: CRC cell proliferation assay (CCK8), RKO; assay type: cell-based; settings: Homo sapiens
Experimental: Three CRC cell lines HT29, HCT116 and RKO were used in this study. The American Type Culture Collection (ATCC; Manassas, Va., USA) provided human CRC cell lines HT29 (ATCC HTB-38; mutant TP53, p.R273H; APC frame shift, p. E1554fs; wild type β-catenin), HCT116 (ATCC CCL-247; wild type TP53; wild type APC; deletion β-catenin, p. S45del) and RKO (ATCC CRL-2577; wild type TP53; wild type APC; wild type β-catenin). Three CRC cells lines as listed above were cultured in adherent culture condition, maintained at 37° C. inside the cell incubation containing 5% CO2. The two cell lines of HCT-116 and HT-29 cells were cultured in McCoy's 5A medium with supplemented 10% fetal bovine serum (Gibco; Thermo Fischer Scientific, Grand Island, N.Y., USA)), 1% penicillin and 1% streptomycin. RKO cell was cultured in MEM medium with supplemented 10% FBS, 1% penicillin, 1% streptomycin and 1% sodium pyruvate. The cell cultures were passaged by trypsinization every three days. BM-BMX (BMX), (E)-2-(4-Methoxybenzyloxy)-3-prenyl-4-methoxy-N-hydroxycinamide, was provided by Nature Wise Biotech & Medicals Corporation (Taipei, Taiwan).
We plated 4000 CRC cells per well in 96-well plates and allowed them to adhere overnight. To validate cell line responsiveness to BMX and TMZ monotherapy, the cells were treated with different doses of BMX or TMZ for 24, 48, and 72 hrs. To confirm cell responsiveness to the BMX-TMZ combination, cells were either treated with different doses of TMZ ([…]) with or without BMX (5 μM) for 24, 48, and 72 hrs or with different doses of BMX (0-10 μM) with or without TMZ (50 μM) for 24, 48, and 72 hrs. Following treatment, the absorption value was measured using a CCK8 kit (Targetmol, Shanghai, China) at the indicated time points. The results are reported as the mean±standard deviation of at least three replicates.

[4] = system: c-Myc and cyclin D1; test: Western blot of c-Myc and cyclin D1 in GBM-R cells; assay type: cell-based, human; settings: 5 or 10 μM BMX with or without 50 μM TMZ, 48 hrs, FIG. 3B
Experimental: (§2) The cells were collected and lysed in RIPA lysis buffer (EMD Millipore Billerica, Mass., USA, 10×RIPA buffer) containing a protease inhibitor. Protein concentration was determined using a protein assay kit (Bio-Rad Laboratories, Hercules, Calif., USA). The SDS loading buffer was mixed with the protein samples. Proteins (20 μg/lane) were separated using 8%-12% SDS-PAGE and transferred to a PVDF membrane, which was blocked with 5% bovine serum albumin at room temperature for 1 hr in tris-buffered saline (TBS)-Tween 20 (0.5%; TBS-T), incubated with primary antibodies overnight at […], and then incubated with horseradish peroxidase (HRP)-conjugated secondary antibodies at room temperature for 1 hr. After washing thoroughly with TBS-T, the HRP signals were detected with a chemical HRP substrate. Signal of each target protein was visualized by incubation with an enhanced chemiluminescent reagent and exposure to X-ray film.

[5] = system: U87MG-R cells; test: Flow cytometric analysis of the DNA cell cycle, U87MG-R; assay type: cell-based, human; settings: 10 μM BMX alone, 48 hrs
Experimental: (§3) For the DNA cell cycle, following treatment with different doses of BMX (0-10 μM) in the presence or absence of TMZ (50 μM) for 48 hrs, the cells were harvested through trypsinization, washed twice with phosphate-buffered saline, and fixed in methanol. The cells were then washed again, subjected to RNase A at a final concentration of 0.05 mg/mL (Sigma-Aldrich; Merck Millipore, Darmstadt, Germany), and incubated with 10 μg/mL propidium iodide (PI; Sigma-Aldrich; Merck Millipore) at 4° C. for 15 min in the dark. Cell cycle analysis was conducted using a fluorescence-activated cell sorting (FACS) flow cytometer (Attune NxT flow cytometer, Thermo Fisher Scientific).

[6] = system: β-catenin; test: Western blot of β-catenin in GBM-R cells; assay type: cell-based, human; settings: U87R and A172R cells; 10 μM BMX with or without 50 μM TMZ; 48 hrs; FIG. 3A
Experimental: as §2

[7] = statement from literature [22]; cited from earlier work
[8] = system: A172-R cells; test: Flow cytometric analysis of the DNA cell cycle, A172-R; assay type: cell-based, human; settings: 10 μM BMX alone, 48 hrs
Experimental: as §3

[9] = system: HCT116 cells; test: Clonogenic (colony formation) assay, HCT116; assay type: cell-based; settings: Homo sapiens, HCT-116, 336 h, 14 days, read-out: IC50 values of TMZ, clonogenic assay
Experimental: (§4) For the anchorage-dependent growth assay, 1000 cells were resuspended in the medium and seeded in 6-well plates. […] After 14 days, the media were removed and the cells were washed and fixed with 4% paraformaldehyde for 30 min, and stained with 0.1% crystal violet for 20 min at 25° C. The intensity of crystal violet was quantified by the absorbance of 570 nm after dissolving the stained cells with dimethyl sulfoxide (DMSO). The results are expressed as the average colony±SE from three independent experiments.

[10] = system: RKO cells; test: Clonogenic (colony formation) assay, RKO; assay type: cell-based; settings: Homo sapiens, 336 h, 14 days, read-out: IC50 values of TMZ, clonogenic assay
Experimental: as §4

[11] = system: HT29 cells; test: Clonogenic (colony formation) assay, HT29; assay type: cell-based; settings: Homo sapiens, HT-29, 336 h, 14 days, read-out: IC50 values of TMZ, clonogenic assay
Experimental: as §4

Q: What does the source list for `COc1ccc(COc2c(/C=C/C(=O)NO)ccc(OC)c2CC=C(C)C)cc1` [BMX, (E)-2-(4-Methoxybenzyloxy)-3-prenyl-4-methoxy-N-hydroxycinamide]?
A: early apoptotic cells [1]: up to 23.78%; early apoptotic cells [2]: ≤ 49.34%; IC50 ([3]; 24 h, BMX alone, 24 hrs, read-out: IC50 of BMX): 38.5 ± 3.5 µM; IC50 ([3]; 24 h, TMZ 50 μM combined with different concentrations of BMX, 24 hrs, read-out: IC50 of BMZ): > 10 µM; IC50 ([3]; 48 h, BMX alone, 48 hrs, read-out: IC50 of BMX): 7.2 ± 0.6 µM; IC50 ([3]; 48 h, TMZ 50 μM combined with different concentrations of BMX, 48 hrs, read-out: IC50 of BMZ): 3.6 ± 0.4 µM; IC50 ([3]; 72 h, BMX alone, 72 hrs, read-out: IC50 of BMX): 1.5 ± 0.2 µM; IC50 ([3]; 72 h, TMZ 50 μM combined with different concentrations of BMX, 72 hrs, read-out: IC50 of BMZ): 0.9 ± 0.1 µM; levels of proliferative markers c-Myc and cyclin D1 [4]: could decrease their levels; cells arrested in G0/G1 phase [5]: 77.95%; protein levels of β-catenin [6]: only slightly reduced these levels; toxicity [7]: lowest toxicity; cells arrested in G0/G1 phase [8]: 70.34%

Q: Which IC50 [9] does the source give for `Cn1nnc2c(C(N)=O)ncn2c1=O` [TMZ, Temozolomide, reference compound] here?
A: 138 ± 22.7 µM

Q: What about the IC50 [10] of the same molecule?
A: 244 ± 29.4 µM

Q: And the IC50 [11]?
A: 359 ± 50.4 µM

Q: What about the IC50 ([3]; 24 h, BMX 5 μM combined with different doses of TMZ, 24 hrs, read-out: IC50 of TMZ) of the same molecule?
A: > 400 µM

Q: And the IC50 ([3]; 24 h, TMZ alone, 24 hrs, read-out: IC50 of TMZ)?
A: > 1000 µM

Q: What about the IC50 ([3]; 48 h, BMX 5 μM combined with different doses of TMZ, 48 hrs, read-out: IC50 of TMZ) of the same molecule?
A: 21.9 ± 2.7 µM

Q: What about the IC50 ([3]; 48 h, TMZ alone, 48 hrs, read-out: IC50 of TMZ) of the same molecule?
A: 992 ± 52.4 µM

Q: And the IC50 ([3]; 72 h, TMZ alone, 72 hrs, read-out: IC50 of TMZ)?
A: 380 ± 40.3 µM
